Values quoted from earlier work as cited in paper PMC10287555, “Camonsertib in DNA damage response-deficient advanced solid tumors: phase 1 trial results” (Nature Medicine, 2023).

System: advanced solid tumors
Conditions: combination with gemcitabine; cited from earlier work

CNCc1ccc(-c2cc(-c3nc(-c4ccc(S(=O)(=O)C(C)C)cc4)cnc3N)on2)cc1 [berzosertib]
Response rate in TMB-H NSCLC versus patients without elevated TMB: higher response rates
